Measured values as given in US6242611A, “Phenylimidazolidines containing nitrooxy or carbonyloxy groups” (Hoechst Marion Roussel, priority 1995, dated 2001).

Assays:
[1] = system: Prostate in an Intact Male Rat; test: Reducing effect in the weight of the prostate in an intact male rat (systemic antiandrogen activity); type: in vivo, male rats of the Sprague Dawley strain; conditions: day 0 to day 4 then day 7 to day 10, intact male rats, compared to animals treated with solvent only
Procedure: The experiment is carried out over two weeks, except for the weekend.
The product can be administered by oral, sub-cutaneous or percutaneous route.
The treatment is carried out from day 0 to day 4 then (after the weekend) from day 7 to day 10. The animals are sacrificed the day after the last treatment by bleeding the carotid artery, the prostates are removed and fixed in demineralized water containing 10% formol for 72 hours. They are then dissected and weighed.

Androgen Receptor = target: T1, Androgen Receptor (Rattus norvegicus, UniProt P15207); test: Affinity for the androgen receptor (relative bond affinity, tritiated testosterone displacement, rat prostate cytosol); type: binding, Male Sprague Dawley EOPS rats
T1 construct: the prostates are removed, weighed and homogenized at 0° C; from tissue; host or cells: prostate cytosol of castrated male Sprague Dawley rats
T1 sequence (P15207 1-902): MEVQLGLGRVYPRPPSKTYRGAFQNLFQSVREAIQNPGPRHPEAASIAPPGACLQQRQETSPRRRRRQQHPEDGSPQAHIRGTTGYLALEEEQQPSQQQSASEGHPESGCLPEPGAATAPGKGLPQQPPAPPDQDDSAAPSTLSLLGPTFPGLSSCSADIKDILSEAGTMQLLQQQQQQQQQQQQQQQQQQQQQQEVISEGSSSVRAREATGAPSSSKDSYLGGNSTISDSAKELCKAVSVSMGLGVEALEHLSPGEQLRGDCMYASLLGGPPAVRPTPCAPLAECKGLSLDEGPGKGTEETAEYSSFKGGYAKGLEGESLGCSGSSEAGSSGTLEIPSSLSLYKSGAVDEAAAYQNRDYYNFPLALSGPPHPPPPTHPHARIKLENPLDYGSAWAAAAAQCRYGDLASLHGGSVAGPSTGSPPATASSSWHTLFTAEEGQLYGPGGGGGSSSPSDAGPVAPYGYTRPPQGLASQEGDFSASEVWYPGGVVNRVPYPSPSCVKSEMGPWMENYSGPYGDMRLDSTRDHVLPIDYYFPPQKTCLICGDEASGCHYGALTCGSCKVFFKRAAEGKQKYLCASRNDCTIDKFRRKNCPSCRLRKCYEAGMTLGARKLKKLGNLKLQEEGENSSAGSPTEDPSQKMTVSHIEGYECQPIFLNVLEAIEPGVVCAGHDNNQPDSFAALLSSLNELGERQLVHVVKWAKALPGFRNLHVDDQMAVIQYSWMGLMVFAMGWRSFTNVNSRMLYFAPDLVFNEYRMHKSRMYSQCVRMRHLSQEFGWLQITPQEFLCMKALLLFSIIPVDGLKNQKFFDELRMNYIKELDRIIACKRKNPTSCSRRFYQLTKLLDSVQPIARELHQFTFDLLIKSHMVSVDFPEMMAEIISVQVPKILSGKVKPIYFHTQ
Procedure: The homogenate is then ultracentrifuged at 0° C., for 30 minutes at 209,000 g.

[2] = system: Costo-vertebral Gland of the Hamster; test: Reducing effect on the costo-vertebral gland of the hamster (local topical antiandrogen activity); type: in vivo, male hamsters (Charles River breed); conditions: 3 weeks (14 administrations), surface area of C.V.G., male hamsters, compared to animals treated with solvent only
Procedure: The local activity (topical) of an antiandrogen is determined by the reduction which it produces in the surface area of the costovertebral gland of the hamster (hereafter C.V.G.), an androgen-dependent organ situated on the sides of the animal.
The animals are male hamsters weighing approximately 140 g, 14 weeks old and originating from the Charles Riverbreed (USA), they are subjected to a long photoperiod (16 hours of light, 8 hours of darkness). The animals are treated every day, except for the weekend, for 3 weeks (14 administrations). The product to be tested is applied, by topical route, to the right-hand G.C.V., the left-hand one serving as the control, the surface of the gland having been shaved beforehand. The animals are sacrificed by bleeding the carotid artery 24 hours after the last treatment. The C.V.G.'s are removed, measured and weighed. The local activity of a product is determined by the % reduction in the surface area of the C.V.G. which it induces in comparison with the 1st of day the experiment and compared to the animals treated with solvent only.

CC(C)OC(=O)OCCCCN1C(=O)N(c2ccc(C#N)c(C(F)(F)F)c2)C(=O)C1(C)C [Example 1, 4-(3-(4-cyano-3-(trifluoromethyl)-phenyl)-5,5-dimethyl-2,4-dioxo-1-imidazolidinyl)butyl and 1-methylethyl carbonate]
% reduction in the prostate weight with 3 mg/kg P.O. [1]: -5% | RBA: Incubation for 24 hours (Androgen Receptor): 19 | % CVG reduction with 3 μg/jour [2]: -32%
